# Results published in ChEMBL document CHEMBL5120822, “Inhibition of the P2X7/NLRP3 Inflammasome Signaling Pathway by Deacetylgedunin from Toona sinensis” (J Nat Prod, 2022).
# Calls of active or inactive are those of the source. The calls are words filed in the database; no cut-off is given here.
# Experiments:
# RAW264.7 [1] = experiment: Antiinflammatory activity in mouse RAW264.7 assessed as inhibition of LPS-induced NO production incubated for 1 hrs followed by LPS stimulation for 18 hrs by Griess reagent based assay; assay type: functional, cell-based
# THP-1 [2] = experiment: Cytotoxicity against human THP-1 cells derived macrophage assessed as reduction in cell viability upto 40 uM incubated for 24 hrs by CCK-8 assay; assay type: toxicity, cell-based; settings: thp-1, 24 h
# RAW264.7 [3] = experiment: Cytotoxicity against mouse RAW264.7 cells derived macrophage assessed as reduction in cell viability upto 40 uM incubated for 24 hrs by CCK-8 assay; assay type: toxicity, cell-based; settings: raw264.7, 24 h
# J774.1 = experiment: Cytotoxicity against mouse J774.1 cells derived macrophage assessed as reduction in cell viability upto 40 uM incubated for 24 hrs by CCK-8 assay; assay type: toxicity, cell-based; settings: j774.1, 24 h
# THP-1 [4] = experiment: Antiinflammatory activity against PMA-differentiated human THP-1 cells assessed as reduction in IL-1beta level at 20 uM incubated for 1 hrs followed by LPS stimulation for 12 hrs and ATP addition for 0.5 hrs by ELISA; assay type: functional, cell-based; settings: time 13.5 hrs
compound,measurement,setting,value
CC(=O)O[C@@H]1C[C@H]2C(C)(C)C(=O)C=C[C@]2(C)[C@H]2CC[C@@]3(C)[C@@H](c4ccoc4)OC(=O)[C@H]4O[C@]43[C@@]21C,IC50,RAW264.7 [1],8.85 µM
same,Activity,THP-1 [2],Toxic
same,Activity,RAW264.7 [3],Toxic
same,Activity,J774.1,Toxic
same,Activity,THP-1 [4],Active
CC1(C)C(=O)C=C[C@]2(C)[C@H]3CC[C@@]4(C)[C@H](c5ccoc5)OC(=O)[C@H]5O[C@]54[C@]3(C)C(=O)C[C@@H]12 [DEACETOXY-7-OXOGEDUNIN],IC50,RAW264.7 [1],9.46 µM
same,Activity,THP-1 [2],Toxic
same,Activity,RAW264.7 [3],Toxic
same,Activity,THP-1 [4],Active
